How the values were obtained:
Type in all cases: in vivo
[1] = test system: Oat, Wild (wild oat, Avena fatua); assay: Test A1 preemergence, Oat, Wild
Description: (§1) Seeds of plant species selected from, blackgrass (Alopecurus myosuroides), corn (Zea mays), Foxtail, Giant (giant foxtail, Setaria faberi), goosegrass (Eleusine indica), kochia (Bassia scoparia), Oat, Wild (wild oat, Avena fatua), Pigweed, Palmer (palmer amaranth, palmer pigweed, Amaranthus palmeri), ragweed (common ragweed, Ambrosia artemisiifolia), Ryegrass, Italian (Italian ryegrass, Lolium multiflorum), soybean (Glycine max), and wheat (Triticum aestivum) were planted into a blend of loam soil and sand and treated preemergence with a directed soil spray using test chemicals formulated in a non-phytotoxic solvent mixture which included a surfactant. At the same time, plants selected from these crop and weed species and also galium (catchweed bedstraw, Galium aparine) and horseweed (Erigeron canadensis) were planted in pots containing the same blend of loam soil and sand and treated with postemergence applications of test chemicals formulated in the same manner. Plants ranged in height from 2 to 10 cm and were in the one- to two-leaf stage for the postemergence treatment. […] A dash (-) response means no test result.

[2] = test system: ragweed (common ragweed, Ambrosia artemisiifolia); assay: Test A1 preemergence, ragweed
Description: as §1

[3] = test system: kochia (Bassia scoparia); assay: Test A1 preemergence, kochia
Description: as §1

[4] = test system: ragweed (common ragweed, Ambrosia artemisiifolia); assay: Test A1 postemergence, ragweed; details: for Plant response rating, Ragweed: Postemergence
Description: as §1

[5] = test system: soybean (Glycine max); assay: Test A1 postemergence, soybean; details: for Plant response rating, Soybean: Postemergence
Description: as §1

[6] = test system: corn (Zea mays); assay: Test A1 postemergence, corn; details: for Plant response rating, Corn: Postemergence
Description: as §1

[7] = test system: goosegrass (Eleusine indica); assay: Test A1 postemergence, goosegrass; details: for Plant response rating, Goosegrass: Postemergence
Description: as §1

[8] = test system: Foxtail, Giant (giant foxtail, Setaria faberi); assay: Test A1 preemergence, Foxtail, Giant
Description: as §1

[9] = test system: galium (catchweed bedstraw, Galium aparine); assay: Test A1 postemergence, galium; details: for Plant response rating, Galium: Postemergence
Description: as §1

[10] = test system: blackgrass (Alopecurus myosuroides); assay: Test A1 postemergence, blackgrass; details: 0 to 100 scale (0 no effect, 100 complete control); for Plant response rating, Blackgrass: Postemergence
Description: as §1

[11] = test system: horseweed (Erigeron canadensis); assay: Test A1 postemergence, horseweed; details: 0 to 100 scale (0 no effect, 100 complete control)
Description: as §1

[12] = test system: goosegrass (Eleusine indica); assay: Test A1 preemergence, goosegrass
Description: as §1

[13] = test system: Pigweed, Palmer (palmer amaranth, palmer pigweed, Amaranthus palmeri); assay: Test A1 preemergence, Pigweed, Palmer
Description: as §1

[14] = test system: Ryegrass, Italian (Italian ryegrass, Lolium multiflorum); assay: Test A1 postemergence, Ryegrass, Italian; details: for Plant response rating, Ryegrass, Italian: Postemergence
Description: as §1

[15] = test system: barnyardgrass (Echinochloa crus-galli); assay: Test B1 flooded paddy test, barnyardgrass; details: 250 g ai/ha, Flood, applied to paddy water, 2-leaf stage, visually evaluated after 10 to 14 days
Description: (§2) A dash (-) response means no test result.

[16] = test system: wheat (Triticum aestivum); assay: Test A1 preemergence, wheat
Description: as §1

[17] = test system: rice (Oryza sativa); assay: Test B1 flooded paddy test, rice; details: 250 g ai/ha, Flood, applied to paddy water, 2-leaf stage, visually evaluated after 10 to 14 days
Description: as §2

[18] = test system: Ryegrass, Italian (Italian ryegrass, Lolium multiflorum); assay: Test A1 preemergence, Ryegrass, Italian
Description: as §1

[19] = test system: Foxtail, Giant (giant foxtail, Setaria faberi); assay: Test A1 postemergence, Foxtail, Giant; details: for Plant response rating, Foxtail, Giant: Postemergence
Description: as §1

[20] = test system: corn (Zea mays); assay: Test A1 preemergence, corn
Description: as §1

[21] = test system: Pigweed, Palmer (palmer amaranth, palmer pigweed, Amaranthus palmeri); assay: Test A1 postemergence, Pigweed, Palmer; details: for Plant response rating, Pigweed, Palmer: Postemergence
Description: as §1

[22] = test system: Oat, Wild (wild oat, Avena fatua); assay: Test A1 postemergence, Oat, Wild; details: for Plant response rating, Oat, Wild: Postemergence
Description: as §1

[23] = test system: wheat (Triticum aestivum); assay: Test A1 postemergence, wheat; details: for Plant response rating, Wheat: Postemergence
Description: as §1

[24] = test system: ducksalad (Heteranthera limosa); assay: Test B1 flooded paddy test, ducksalad; details: 250 g ai/ha, Flood, applied to paddy water, 2-leaf stage, visually evaluated after 10 to 14 days
Description: as §2

[25] = test system: kochia (Bassia scoparia); assay: Test A1 postemergence, kochia; details: for Plant response rating, Kochia: Postemergence
Description: as §1

[26] = test system: soybean (Glycine max); assay: Test A1 preemergence, soybean
Description: as §1

[27] = test system: blackgrass (Alopecurus myosuroides); assay: Test A1 preemergence, blackgrass
Description: as §1

[28] = 31 g ai/ha, 0 to 100 scale (0 no effect, 100 complete control)
[29] = 125 g ai/ha, 0 to 100 scale, 0 no effect, 100 complete control
[30] = 31 g ai/ha, postemergence, 0 to 100 scale (0 no effect, 100 complete control)
[31] = 125 g ai/ha, 0 to 100 scale (0 no effect, 100 complete control), 10 days
[32] = 500 g ai/ha, 0 to 100 scale (0 no effect, 100 complete control)

Structure (SMILES): Cc1cc(C)c(C2=NOC(C(C)C)C2)cc1NS(=O)(=O)C(F)(F)F (centres unmarked) [Compound 381]
- Plant response rating, Oat, Wild [1, 28]: 50
- Plant response rating, Oat, Wild [1, 29]: 80
- Plant response rating, Ragweed [2, 28]: 0
- Plant response rating, Ragweed [2, 29]: 0
- Plant response rating, Kochia [3, 28]: 0
- Plant response rating, Kochia [3, 29]: 60
- Ragweed plant response rating [4, 30]: 0
- Plant response rating, Ragweed [4, 31]: 50
- Soybean plant response rating [5, 30]: 50
- Plant response rating, Soybean [5, 31]: 60
- Corn plant response rating [6, 30]: 0
- Plant response rating, Corn [6, 31]: 20
- Goosegrass plant response rating [7, 30]: 0
- Plant response rating, Goosegrass [7, 31]: 50
- Plant response rating, Foxtail, Giant [8, 28]: 20
- Plant response rating, Foxtail, Giant [8, 29]: 100
- Galium plant response rating [9, 30]: 0
- Plant response rating, Galium [9, 31]: 50
- Blackgrass plant response rating ([10]; 31 g ai/ha, postemergence): 0
- Plant response rating, Blackgrass ([10]; 125 g ai/ha, 10 days): 70
- Horseweed plant response rating ([11]; 31 g ai/ha, postemergence): 0
- Plant response rating, Horseweed ([11]; Postemergence, 125 g ai/ha, 10 days): 30
- Plant response rating, Goosegrass [12, 28]: 30
- Plant response rating, Goosegrass [12, 29]: 100
- Plant response rating, Pigweed, Palmer [13, 28]: 30
- Plant response rating, Pigweed, Palmer [13, 29]: 90
- Ryegrass, Italian plant response rating [14, 30]: 0
- Plant response rating, Ryegrass, Italian [14, 31]: 0
- Plant response rating, Barnyardgrass (0 to 100 scale, 0 is no effect, 100 is complete control) [15]: 70
- Plant response rating, Wheat [16, 28]: 40
- Plant response rating, Wheat [16, 29]: 90
- Plant response rating, Rice (0 to 100 scale, 0 is no effect, 100 is complete control) [17]: 0
- Plant response rating, Ryegrass, Italian [18, 28]: 50
- Plant response rating, Ryegrass, Italian [18, 29]: 90
- Foxtail, Giant plant response rating [19, 30]: 0
- Plant response rating, Foxtail, Giant [19, 31]: 50
- Plant response rating, Corn [20, 28]: 0
- Plant response rating, Corn [20, 29]: 70
- Pigweed, Palmer plant response rating [21, 30]: 0
- Plant response rating, Pigweed, Palmer [21, 31]: 10
- Oat, Wild plant response rating [22, 30]: 0
- Plant response rating, Oat, Wild [22, 31]: 20
- Wheat plant response rating [23, 30]: 20
- Plant response rating, Wheat [23, 31]: 70
- Plant response rating, Ducksalad (0 to 100 scale, 0 is no effect, 100 is complete control) [24]: 50
- Kochia plant response rating [25, 30]: 0
- Plant response rating, Kochia [25, 31]: 20
- Plant response rating, Soybean [26, 28]: 0
- Plant response rating, Soybean [26, 29]: 50

Structure (SMILES): Cc1cc(C)c(N(COC(=O)C(C)(C)C)S(=O)(=O)C(F)(F)F)cc1N1CCC2(CCC(F)(F)CC2)C1=O [Compound 397]
- Plant response rating, Oat, Wild [1, 29]: 20
- Plant response rating, Oat, Wild [1, 32]: 90
- Plant response rating, Ragweed [2, 29]: 90
- Plant response rating, Ragweed [2, 32]: 90
- Plant response rating, Kochia [3, 29]: 90
- Plant response rating, Kochia [3, 32]: 100
- Plant response rating, Ragweed [4, 31]: 80
- Plant response rating, Ragweed ([4]; 500 g ai/ha, 0 to 100 scale): 80
- Plant response rating, Soybean [5, 31]: 50
- Plant response rating, Soybean ([5]; 500 g ai/ha, 0 to 100 scale): 60
- Plant response rating, Corn [6, 31]: 10
- Plant response rating, Corn ([6]; 500 g ai/ha, 0 to 100 scale): 10
- Plant response rating, Goosegrass [7, 31]: 90
- Plant response rating, Goosegrass ([7]; 500 g ai/ha, 0 to 100 scale): 90
- Plant response rating, Foxtail, Giant [8, 29]: 100
- Plant response rating, Foxtail, Giant [8, 32]: 100
- Plant response rating, Galium [9, 31]: 100
- Plant response rating, Galium ([9]; 500 g ai/ha, 0 to 100 scale): 100
- Plant response rating, Blackgrass [27, 29]: 40
- Plant response rating, Blackgrass [27, 32]: 90
- Plant response rating, Blackgrass ([10]; 125 g ai/ha, 10 days): 40
- Plant response rating, Blackgrass ([10]; 500 g ai/ha): 90
- Plant response rating, Goosegrass [12, 29]: 100
- Plant response rating, Goosegrass [12, 32]: 100
- Plant response rating, Pigweed, Palmer [13, 29]: 90
- Plant response rating, Pigweed, Palmer [13, 32]: 100
- Plant response rating, Ryegrass, Italian [14, 31]: 50
- Plant response rating, Ryegrass, Italian ([14]; 500 g ai/ha, 0 to 100 scale): 80
- Plant response rating, Barnyardgrass (0 to 100 scale, 0 is no effect, 100 is complete control) [15]: 90
- Plant response rating, Wheat [16, 29]: 20
- Plant response rating, Wheat [16, 32]: 100
- Plant response rating, Rice (0 to 100 scale, 0 is no effect, 100 is complete control) [17]: 0
- Plant response rating, Ryegrass, Italian [18, 29]: 100
- Plant response rating, Ryegrass, Italian [18, 32]: 100
- Plant response rating, Foxtail, Giant [19, 31]: 20
- Plant response rating, Foxtail, Giant ([19]; 500 g ai/ha, 0 to 100 scale): 70
- Plant response rating, Corn [20, 29]: 10
- Plant response rating, Corn [20, 32]: 60
- Plant response rating, Pigweed, Palmer [21, 31]: 80
- Plant response rating, Pigweed, Palmer ([21]; 500 g ai/ha, 0 to 100 scale): 100
- Plant response rating, Oat, Wild [22, 31]: 10
- Plant response rating, Oat, Wild ([22]; 500 g ai/ha, 0 to 100 scale): 0
- Plant response rating, Wheat [23, 31]: 60
- Plant response rating, Wheat ([23]; 500 g ai/ha, 0 to 100 scale): 70
- Plant response rating, Ducksalad (0 to 100 scale, 0 is no effect, 100 is complete control) [24]: 75
- Plant response rating, Kochia [25, 31]: 90
- Plant response rating, Kochia ([25]; 500 g ai/ha, 0 to 100 scale): 90
- Plant response rating, Soybean [26, 29]: 40
- Plant response rating, Soybean [26, 32]: 80

Reference: US20230278972A1, “SUBSTITUTED HALOALKYL SULFONANILIDE HERBICIDES” (FMC Corporation, priority 2020, published 2023)
